Measurements as given in publication PMC3516535, “Rhesus Macaque Theta Defensins Suppress Inflammatory Cytokines and Enhance Survival in Mouse Models of Bacteremic Sepsis” (PLoS ONE, 2012).
Bridge positions count the residues as written; N and C are the ends. Ends that are not written are not given here. Peptide text beside a SMILES is read from it.

Key:
[1] = test system: human EDTA-anti-coagulated blood diluted 1∶10; assay: TNF release assay in stimulated diluted whole blood (ELISA); type: cell-based; details: 4 h; for anti-TNF effectiveness relative to RTD-1 / hierarchy of anti-TNF potencies: E. coli-stimulated blood, N = 2
THP-1 monocytic cells = assay: TNF release assay in LPS-stimulated THP-1 monocytes (ELISA); type: cell-based, human; details: 4 h, N = 2; for hierarchy of anti-TNF potencies: THP-1 in RPMI +5% human EDTA-plasma, 1 ng/ml K12 LPS
Experimental: THP-1 monocytic cells (ATCC, Manassas, VA) were grown and maintained in RPMI-1640 medium containing 10% fetal bovine serum and penicillin/streptomycin. Cells were harvested by centrifugation, washed with RPMI-1640 medium and suspended at 5×10^5 cells/ml in fresh medium containing 5% human EDTA plasma.
Peptides (RTDs 1–5, human neutrophil α-defensins) were aliquoted into wells of pyrogen-free 12- or 24-well plates wherein final peptide concentrations were 0–10 µg/ml. Wells were inoculated with 1×10^5 CFU/ml S. aureus or 100 CFU/ml E. coli, or 1–3 ng/ml of E. coli K12 LPS. Samples (5–10 µl) containing peptide or bacteria/LPS were placed on opposite sides of the plate well. Mixing commenced with the addition of 0.5 to 2.0 ml of 1∶10 diluted blood, PBLs (5×10^5/ml), or THP-1 cells (2–5×10^5 cells/ml). Plates were incubated at 37°C in 5% CO2 for 4 h with gentle mixing. […] Incubation mixtures were centrifuged at 200× g for 10 min at 22°C and supernatants were clarified by centrifugation at 23,000× g for 15 min at 4°C. Supernatant TNF was quantified by sandwich ELISA (OptEIA II; BD Biosciences; Hu TNF-α, Invitrogen) per suppliers’ directions, using a SpectraMax Plate Reader.

lethal bacteremia = details: single systemic administration at time of bacterial challenge; cited from earlier work
Source text: The macrocyclic structure of θ-defensins confers remarkable stability. […] RTD-1 was also well-tolerated when administered intravenously or subcutaneously to mice, rats, and chimpanzees. Following repeated injections, neither of two chimpanzees produced anti-RTD-1 antibody. […] The discovery of antimicrobial peptides and their proven roles in host defense has prompted studies to evaluate dive ...

CLP sepsis = test system: CLP sepsis; parameters: method as in PMID 12545019; details: multiple doses; cited from earlier work

Compound	anti-TNF effectiveness relative to RTD-1 [1]	hierarchy of anti-TNF potencies [1]	hierarchy of anti-TNF potencies (THP-1 monocytic cells)	further results
CC(C)C[C@@H]1NC(=O)[C@@H]2CSSC[C@H](NC(=O)[C@H](CCCNC(=N)N)NC(=O)[C@@H]3CSSC[C@H](NC1=O)C(=O)N[C@@H](CCCNC(=N)N)C(=O)N[C@@H](CCCNC(=N)N)C(=O)NCC(=O)N[C@@H](C(C)C)C(=O)N3)C(=O)N[C@@H](CC(C)C)C(=O)N[C@H]1CSSC[C@H](NC(=O)[C@H](C(C)C)NC(=O)CNC(=O)[C@H](CCCNC(=N)N)NC(=O)[C@H](CCCNC(=N)N)NC1=O)C(=O)N[C@@H](CCCNC(=N)N)C(=O)N2 [RTD-2] (cyclo(CLCRRGVCRCLCRRGVCR); disulfide 1-10, 3-8, 12-17)	substantially more effective than RTD-1	RTD-5>2>1>4>3	RTD-5>2>1>4>3	–
CC[C@H](C)[C@@H]1NC(=O)[C@@H]2CSSC[C@H](NC(=O)[C@H](CCCNC(=N)N)NC(=O)[C@@H]3CSSC[C@H](NC1=O)C(=O)N[C@@H]([C@@H](C)O)C(=O)N[C@@H](CCCNC(=N)N)C(=O)NCC(=O)N[C@@H](Cc1ccccc1)C(=O)N3)C(=O)N[C@@H]([C@@H](C)CC)C(=O)N[C@H]1CSSC[C@H](NC(=O)[C@H](Cc3ccccc3)NC(=O)CNC(=O)[C@H](CCCNC(=N)N)NC(=O)[C@H]([C@@H](C)O)NC1=O)C(=O)N[C@@H](CCCNC(=N)N)C(=O)N2 [RTD-3] (cyclo(CICTRGFCRCICTRGFCR); disulfide 1-10, 3-8, 12-17)	less active	RTD-5>2>1>4>3	RTD-5>2>1>4>3	–
CC[C@H](C)[C@@H]1NC(=O)CNC(=O)[C@H](CC(C)C)NC(=O)[C@H](C(C)C)NC(=O)[C@@H]2CSSC[C@H](NC1=O)C(=O)N[C@@H](CCCNC(=N)N)C(=O)N[C@H]1CSSC[C@H](NC(=O)[C@H](CCCNC(=N)N)NC(=O)[C@@H]3CSSC[C@H](NC(=O)[C@H]([C@@H](C)CC)NC1=O)C(=O)N[C@@H]([C@@H](C)O)C(=O)N[C@@H](CCCNC(=N)N)C(=O)NCC(=O)N[C@@H](Cc1ccccc1)C(=O)N3)C(=O)N[C@@H]([C@@H](C)CC)C(=O)N2 [RTD-4] (cyclo(CICTRGFCRCICVLGICR); disulfide 1-10, 3-8, 12-17)	less active	RTD-5>2>1>4>3	RTD-5>2>1>4>3	–
CC[C@H](C)[C@@H]1NC(=O)CNC(=O)[C@H](CC(C)C)NC(=O)[C@H](C(C)C)NC(=O)[C@@H]2CSSC[C@H](NC1=O)C(=O)N[C@@H](CCCNC(=N)N)C(=O)N[C@H]1CSSC[C@H](NC(=O)[C@H](CCCNC(=N)N)NC(=O)[C@@H]3CSSC[C@H](NC(=O)[C@H]([C@@H](C)CC)NC1=O)C(=O)N[C@@H](CCCNC(=N)N)C(=O)N[C@@H](CCCNC(=N)N)C(=O)NCC(=O)N[C@@H](C(C)C)C(=O)N3)C(=O)N[C@@H]([C@@H](C)CC)C(=O)N2 [RTD-5] (cyclo(CICRRGVCRCICVLGICR); disulfide 1-10, 3-8, 12-17)	substantially more effective than RTD-1	RTD-5>2>1>4>3	RTD-5>2>1>4>3	–
HNP-2: human neutrophil α-defensin purified from human neutrophils (CYCRIPACIAGERRYGTCIYQGRLWAFCC; ends and bridges not checked; cysteine pairing not given here; UniProt P59665 66-94, looked up) [reference compound]	–	–	–	effect on stimulated TNF release ([1]; E. coli-stimulated, 0–10 µg/ml peptide): no inhibitory effect; effect on stimulated TNF release (THP-1 monocytic cells; THP-1, 1 ng/ml K12 LPS): no inhibitory effect
LL-37: antimicrobial peptide derived from human cells (LLGDFFRKSKEKIGKEFKRIVQRIKDFLRNLVPRTES; Antibacterial peptide LL-37; UniProt P49913 134-170, looked up)	–	–	–	protection against lethal bacteremia (lethal bacteremia): Protection
PG-1: porcine protegrin (RGGRLCYCRRRFCVCVGR; ends and bridges not checked; cysteine pairing not given here; UniProt P32194 131-148, looked up)	–	–	–	endotoxin-neutralizing effect (CLP sepsis): little endotoxin-neutralizing effect; therapeutic effect compared to vehicle control (CLP sepsis): no therapeutic effect
indolicidin: antimicrobial peptide from ungulates (ILPWKWPWWPWRR; ends and bridges not checked; UniProt P33046 131-143, looked up)	–	–	–	protection against lethal bacteremia (lethal bacteremia): Protection
